ChEMBL document CHEMBL1909046, “DrugMatrix in vitro pharmacology data”
*1 amine or outer side, *2 acyl side, *3 side chain or, on linkers, in order; H or OH if unused. Where a SMILES comes first, the peptide text is derived from it. Bridges are numbered along the chain shown (N, C = ends). Roman numbers before positions name the chains, in order. [ ]: non-standard residue; d: D form. Actinocin(1to9) = Cc1c2oc3c(C)ccc(C(=O)[*:2])c3nc-2c(C(=O)[*:1])c(N)c1=O; NMeV = CN[C@H](C(=O)O)C(C)C; Sar = CNCC(=O)O

Tests used:
[1] = biological target: T1, Progesterone receptor (Bos taurus, UniProt Q690N0); assay: DRUGMATRIX: Progesterone radioligand binding (ligand: [3H] R-5020); assay type: tissue-based, Uterus; details: Not Active = under 50% inhibition at 10 µM
T1 sequence (Q690N0 whole entry): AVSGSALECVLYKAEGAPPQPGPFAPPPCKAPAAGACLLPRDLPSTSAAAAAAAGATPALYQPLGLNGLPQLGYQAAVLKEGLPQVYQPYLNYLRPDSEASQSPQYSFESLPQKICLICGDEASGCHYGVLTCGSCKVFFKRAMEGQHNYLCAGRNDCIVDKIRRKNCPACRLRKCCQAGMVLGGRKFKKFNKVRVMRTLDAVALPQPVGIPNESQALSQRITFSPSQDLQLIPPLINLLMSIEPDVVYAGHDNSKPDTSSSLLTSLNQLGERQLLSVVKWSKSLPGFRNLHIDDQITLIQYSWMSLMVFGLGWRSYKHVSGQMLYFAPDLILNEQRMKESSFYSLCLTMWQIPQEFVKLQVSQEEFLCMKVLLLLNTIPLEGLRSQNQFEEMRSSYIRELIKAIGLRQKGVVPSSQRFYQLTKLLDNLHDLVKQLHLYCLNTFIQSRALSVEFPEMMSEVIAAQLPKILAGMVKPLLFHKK

[2] = biological target: Mitogen-activated protein kinase 3 (Homo sapiens, UniProt P27361); assay: DRUGMATRIX: Protein Serine/Threonine Kinase, ERK1 enzyme inhibition (substrate: Myelin Basic Protein); design: species or system Escherichia coli; details: Not Active = under 50% inhibition at 10 µM
Mitogen-activated protein kinase 3, sequence (P27361 whole entry): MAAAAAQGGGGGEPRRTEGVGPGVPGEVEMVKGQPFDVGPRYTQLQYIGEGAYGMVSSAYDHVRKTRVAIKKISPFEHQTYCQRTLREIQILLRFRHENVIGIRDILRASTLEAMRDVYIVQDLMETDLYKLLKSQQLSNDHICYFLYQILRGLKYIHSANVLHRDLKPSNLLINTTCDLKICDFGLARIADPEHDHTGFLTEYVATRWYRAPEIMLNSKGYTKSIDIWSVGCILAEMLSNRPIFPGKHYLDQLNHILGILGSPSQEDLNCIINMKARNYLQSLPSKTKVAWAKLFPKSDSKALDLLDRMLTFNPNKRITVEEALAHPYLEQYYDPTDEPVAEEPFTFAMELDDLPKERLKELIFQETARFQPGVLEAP

[3] = biological target: Cytochrome P450 3A4 (Homo sapiens, UniProt P08684); details: bti-tn-5b1-4; further: in other assays of this panel Not Active means under 50% inhibition at 10 µM
Cytochrome P450 3A4, sequence (P08684 whole entry): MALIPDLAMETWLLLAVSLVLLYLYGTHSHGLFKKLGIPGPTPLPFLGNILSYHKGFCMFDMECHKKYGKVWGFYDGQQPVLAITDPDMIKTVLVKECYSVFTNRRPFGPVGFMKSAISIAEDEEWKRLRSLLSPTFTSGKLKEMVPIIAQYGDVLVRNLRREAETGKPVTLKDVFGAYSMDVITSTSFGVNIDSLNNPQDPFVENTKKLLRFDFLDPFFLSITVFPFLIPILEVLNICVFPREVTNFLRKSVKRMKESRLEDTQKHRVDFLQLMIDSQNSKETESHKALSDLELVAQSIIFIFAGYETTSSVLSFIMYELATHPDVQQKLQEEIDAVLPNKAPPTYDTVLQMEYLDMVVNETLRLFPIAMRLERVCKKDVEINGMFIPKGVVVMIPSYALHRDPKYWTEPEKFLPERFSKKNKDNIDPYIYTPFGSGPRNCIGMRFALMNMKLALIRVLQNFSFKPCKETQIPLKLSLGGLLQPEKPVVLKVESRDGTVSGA

[4] = biological target: T2, Estrogen receptor (Homo sapiens, UniProt P03372); details: sf9; further: in other assays of this panel Not Active means under 50% inhibition at 10 µM
T2 sequence (P03372 whole entry): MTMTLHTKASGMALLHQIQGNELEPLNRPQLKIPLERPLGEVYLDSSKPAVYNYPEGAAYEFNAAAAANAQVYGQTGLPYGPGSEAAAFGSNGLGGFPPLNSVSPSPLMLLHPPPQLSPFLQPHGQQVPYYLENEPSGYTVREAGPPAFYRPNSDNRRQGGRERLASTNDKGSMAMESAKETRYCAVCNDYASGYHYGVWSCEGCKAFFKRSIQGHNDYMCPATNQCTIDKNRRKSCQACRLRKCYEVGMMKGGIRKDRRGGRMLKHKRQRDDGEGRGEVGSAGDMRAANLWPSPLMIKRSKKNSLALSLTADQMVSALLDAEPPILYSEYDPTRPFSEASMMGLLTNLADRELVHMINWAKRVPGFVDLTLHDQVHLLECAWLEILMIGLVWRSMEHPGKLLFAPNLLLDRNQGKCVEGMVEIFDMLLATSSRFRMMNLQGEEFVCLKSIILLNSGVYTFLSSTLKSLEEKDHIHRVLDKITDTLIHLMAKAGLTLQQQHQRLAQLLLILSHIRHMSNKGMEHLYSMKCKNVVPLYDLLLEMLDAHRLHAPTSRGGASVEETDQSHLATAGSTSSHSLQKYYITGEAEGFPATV

[5] = biological target: C-C chemokine receptor type 5 (Homo sapiens, UniProt P51681); assay type: cell membranes, Membrane; details: hek293; further: in other assays of this panel Not Active means under 50% inhibition at 10 µM
C-C chemokine receptor type 5, sequence (P51681 whole entry): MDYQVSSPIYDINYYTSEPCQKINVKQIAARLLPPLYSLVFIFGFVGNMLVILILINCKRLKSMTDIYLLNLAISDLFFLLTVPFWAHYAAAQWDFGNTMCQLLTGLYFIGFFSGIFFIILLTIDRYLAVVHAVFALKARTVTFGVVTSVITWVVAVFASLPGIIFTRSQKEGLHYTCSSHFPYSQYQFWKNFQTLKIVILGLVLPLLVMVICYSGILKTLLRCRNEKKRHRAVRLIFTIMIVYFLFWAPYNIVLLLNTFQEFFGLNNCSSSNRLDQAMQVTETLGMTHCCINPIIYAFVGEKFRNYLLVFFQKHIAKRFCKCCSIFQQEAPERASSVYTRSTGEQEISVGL

[6] = biological target: T3, B2 bradykinin receptor (Homo sapiens, UniProt P30411); assay type: cell membranes, Membrane; details: chem-1; further: in other assays of this panel Not Active means under 50% inhibition at 10 µM
T3 sequence (P30411 whole entry): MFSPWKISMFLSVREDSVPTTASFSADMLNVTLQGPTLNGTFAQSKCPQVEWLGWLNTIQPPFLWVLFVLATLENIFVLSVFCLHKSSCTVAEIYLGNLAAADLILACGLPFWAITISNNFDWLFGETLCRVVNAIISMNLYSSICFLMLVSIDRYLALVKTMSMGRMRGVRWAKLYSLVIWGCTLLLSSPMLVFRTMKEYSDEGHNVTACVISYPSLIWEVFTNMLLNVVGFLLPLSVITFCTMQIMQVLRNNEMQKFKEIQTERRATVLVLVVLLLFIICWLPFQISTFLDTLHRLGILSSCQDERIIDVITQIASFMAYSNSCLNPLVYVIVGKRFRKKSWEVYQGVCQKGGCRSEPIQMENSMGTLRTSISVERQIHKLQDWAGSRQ

[7] = biological target: T4, Androgen receptor (Rattus norvegicus, UniProt P15207); further: in other assays of this panel Not Active means under 50% inhibition at 10 µM
T4 sequence (P15207 whole entry): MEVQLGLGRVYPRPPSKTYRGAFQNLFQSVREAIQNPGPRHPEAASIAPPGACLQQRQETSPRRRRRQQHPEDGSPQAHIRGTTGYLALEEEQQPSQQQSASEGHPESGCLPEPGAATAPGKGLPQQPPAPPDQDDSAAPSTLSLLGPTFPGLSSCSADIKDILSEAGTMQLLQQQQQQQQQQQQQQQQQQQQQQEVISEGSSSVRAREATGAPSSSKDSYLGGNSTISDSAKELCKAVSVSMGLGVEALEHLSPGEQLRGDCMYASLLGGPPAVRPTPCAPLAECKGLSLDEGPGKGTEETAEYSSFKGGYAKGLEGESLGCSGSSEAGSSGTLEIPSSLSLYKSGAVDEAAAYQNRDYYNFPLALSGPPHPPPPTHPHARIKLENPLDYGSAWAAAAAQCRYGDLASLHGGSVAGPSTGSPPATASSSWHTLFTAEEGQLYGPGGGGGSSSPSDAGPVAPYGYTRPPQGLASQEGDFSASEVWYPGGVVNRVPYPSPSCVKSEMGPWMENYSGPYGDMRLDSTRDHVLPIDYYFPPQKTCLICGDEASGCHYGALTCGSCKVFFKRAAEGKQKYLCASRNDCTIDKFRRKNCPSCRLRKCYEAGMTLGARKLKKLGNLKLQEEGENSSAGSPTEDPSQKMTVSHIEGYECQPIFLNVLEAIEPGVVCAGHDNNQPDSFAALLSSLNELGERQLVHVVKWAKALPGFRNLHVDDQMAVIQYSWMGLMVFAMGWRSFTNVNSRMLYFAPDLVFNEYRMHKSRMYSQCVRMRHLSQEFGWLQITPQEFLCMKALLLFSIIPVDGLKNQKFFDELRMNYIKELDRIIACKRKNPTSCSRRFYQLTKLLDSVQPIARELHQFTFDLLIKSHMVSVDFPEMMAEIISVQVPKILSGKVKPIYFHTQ

CADMIUM ACETATE
Not Active: IC50 [1] | Ki [1] | IC50 [2] | Ki [2] | IC50 [3] | Ki [3] | IC50 [4] | Ki [4] | IC50 [5] | Ki [5] | IC50 [6] | Ki [6] | IC50 [7] | Ki [7]

Cc1c2oc3c(C)ccc(C(=O)N[C@@H]4C(=O)N[C@H](C(C)C)C(=O)N5CCC[C@H]5C(=O)N(C)CC(=O)N(C)[C@@H](C(C)C)C(=O)O[C@@H]4C)c3nc-2c(C(=O)N[C@@H]2C(=O)N[C@H](C(C)C)C(=O)N3CCC[C@H]3C(=O)N(C)CC(=O)N(C)[C@@H](C(C)C)C(=O)O[C@@H]2C)c(N)c1=O [DACTINOMYCIN] (I: T[dV]P[Sar][NMeV] / II: T[dV]P[Sar][NMeV]; ester I:1-I:C, II:1-II:C; linker I:N-II:N via Actinocin(1to9))
Not Active: IC50 [1] | IC50 [2] | IC50 [3] | Ki [3] | IC50 [4] | IC50 [5] | IC50 [6] | IC50 [7]

C=C(C)C1(O)OC(=O)C=C1OC (configuration not stated) [PENICILLIC ACID]
Not Active: IC50 [1] | IC50 [2] | IC50 [3] | Ki [3] | IC50 [4] | IC50 [5] | IC50 [6] | IC50 [7]

NC(=O)N1c2ccccc2CCc2ccccc21
Not Active: IC50 [1] | IC50 [2] | IC50 [3] | Ki [3] | IC50 [4] | IC50 [5] | IC50 [6] | IC50 [7]

COc1ccc(C[C@H]2NC[C@H](O)[C@H]2OC(C)=O)cc1 [ANISOMYCIN]
Not Active: IC50 [1] | Ki [1] | IC50 [2] | Ki [2] | IC50 [3] | Ki [3] | IC50 [4] | Ki [4] | IC50 [5] | Ki [5] | IC50 [6] | Ki [6] | IC50 [7] | Ki [7]

CCC1(c2ccc(N)cc2)CCC(=O)NC1=O (configuration not stated) [AMINOGLUTETHIMIDE]
Not Active: IC50 [1] | IC50 [2] | IC50 [3] | Ki [3] | IC50 [4] | IC50 [5] | IC50 [6] | IC50 [7]

CCOc1ccc(NC(C)=O)cc1 [PHENACETIN]
Not Active: IC50 [1] | IC50 [2] | IC50 [3] | Ki [3] | IC50 [4] | IC50 [5] | IC50 [6] | IC50 [7]

CNCCCN1c2ccccc2CCc2ccccc21 [DESIPRAMINE]
Not Active: IC50 [1] | IC50 [2] | IC50 [3] | Ki [3] | IC50 [4] | IC50 [5] | IC50 [6] | IC50 [7]

c1ccc2c(c1)c1cccc3ccc4cccc2c4c31 [BENZO[E]PYRENE]
Not Active: IC50 [1] | IC50 [2] | IC50 [3] | Ki [3] | IC50 [4] | IC50 [5] | IC50 [6] | IC50 [7]

Nc1c(Br)cc(Br)cc1CN[C@H]1CC[C@H](O)CC1 [AMBROXOL]
Not Active: IC50 [1] | IC50 [2] | IC50 [4] | IC50 [5] | IC50 [6] | IC50 [7]

CC(C)CN(C[C@@H](O)[C@H](Cc1ccccc1)NC(=O)O[C@H]1CCOC1)S(=O)(=O)c1ccc(N)cc1
Not Active: IC50 [1] | IC50 [2] | IC50 [4] | IC50 [5] | IC50 [6] | IC50 [7]

CC(C)[C@H]1C(=O)N2CCC[C@H]2[C@]2(O)O[C@](NC(=O)[C@@H]3C=C4c5cccc6[nH]cc(c56)C[C@H]4N(C)C3)(C(C)C)C(=O)N12 [ERGOCORNINE]
Not Active: IC50 [1] | IC50 [2] | IC50 [4] | IC50 [5] | IC50 [6] | IC50 [7]
